Measured values published in US9233947B2, “Sulfamides as TRPM8 modulators” (Janssen Pharmaceutica, NV, priority 2008, dated 2016).

Key:
canine TRPM8 = canine TRPM8 (Canis lupus familiaris, UniProt Q1A7N1); test: In Vitro Canine TRPM8 Functional Assay (intracellular Ca2+ fluorescence, icilin activation); assay type: cell-based; details: HEK293 cells stably expressing canine TRPM8; for IC50: icilin challenge at ~80% maximal response, eight-point dose-response, single determinations, read-out: IC50 (μM) @ 0.2; for % Inh @ 0.2 (μM) / inhibition at 0.2 µM: 0.2 μM compound, icilin challenge
canine TRPM8, sequence (Q1A7N1 1-1104): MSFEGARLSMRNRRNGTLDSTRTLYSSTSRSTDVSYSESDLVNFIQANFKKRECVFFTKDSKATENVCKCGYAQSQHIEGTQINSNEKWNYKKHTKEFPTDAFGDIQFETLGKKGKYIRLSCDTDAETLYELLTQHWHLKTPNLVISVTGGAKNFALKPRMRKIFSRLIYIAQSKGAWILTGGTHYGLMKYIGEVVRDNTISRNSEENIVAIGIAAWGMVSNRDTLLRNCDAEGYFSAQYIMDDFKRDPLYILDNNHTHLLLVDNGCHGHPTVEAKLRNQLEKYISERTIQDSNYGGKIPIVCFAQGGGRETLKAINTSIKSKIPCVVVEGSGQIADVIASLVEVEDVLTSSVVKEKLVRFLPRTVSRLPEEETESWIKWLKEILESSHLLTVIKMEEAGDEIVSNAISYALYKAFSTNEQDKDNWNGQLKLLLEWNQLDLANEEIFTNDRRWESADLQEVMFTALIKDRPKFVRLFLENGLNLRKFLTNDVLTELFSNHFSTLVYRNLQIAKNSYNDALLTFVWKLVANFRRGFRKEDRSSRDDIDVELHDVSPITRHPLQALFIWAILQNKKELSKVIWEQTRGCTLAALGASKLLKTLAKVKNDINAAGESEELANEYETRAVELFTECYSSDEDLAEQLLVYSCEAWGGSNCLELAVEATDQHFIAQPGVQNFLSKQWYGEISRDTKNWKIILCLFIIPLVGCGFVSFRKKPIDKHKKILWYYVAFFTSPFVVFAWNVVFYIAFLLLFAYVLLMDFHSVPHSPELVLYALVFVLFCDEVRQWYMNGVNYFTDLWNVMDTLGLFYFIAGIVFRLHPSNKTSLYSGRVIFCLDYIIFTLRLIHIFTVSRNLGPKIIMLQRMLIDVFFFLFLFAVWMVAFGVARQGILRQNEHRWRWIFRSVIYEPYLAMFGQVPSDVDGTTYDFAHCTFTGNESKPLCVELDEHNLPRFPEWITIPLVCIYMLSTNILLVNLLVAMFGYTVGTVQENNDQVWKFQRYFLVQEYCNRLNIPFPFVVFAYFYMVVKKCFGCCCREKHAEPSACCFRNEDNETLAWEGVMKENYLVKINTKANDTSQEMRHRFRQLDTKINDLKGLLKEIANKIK
Procedure: The functional activity of compounds of the formula (I) was determined by measuring changes in intracellular calcium concentration using a Ca^2+-sensitive fluorescent dye. The changes in fluorescent signal were monitored by a fluorescence plate reader, either a FLIPR™ (Molecular Devices) or FDSS (Hamamatsu).
At 24 hrs prior to assay, HEK293 cells stably expressing canine TRPM8 were seeded in culture medium in black wall, clear-base poly-D-lysine coated 384-well plates (BD Biosciences, NJ, USA) and grown overnight in 5% CO2 at 37° C. On assay day, growth media was removed and cells were loaded with Calcium 3 Dye (Molecular Devices) for 35 min at 37° C., under 5% CO2 and then for 25 min at room temperature and atmosphere. Subsequently, cells were tested for agonist-induced increases in intracellular Ca^2+ levels using FLIPR™ or FDSS. Cells were challenged with a compound of the Formula (I) (at varying concentrations) and intracellular Ca^2+ was measured for 5 min prior to the addition of icilin to all wells to achieve a final concentration that produces approximately an 80% maximal response. EC50 or IC50 values for compounds of the present invention were determined from eight-point dose-response studies. Curves were generated using the average of quadruplicate wells for each data point.

[1] = system: icilin-induced "wet-dog" shakes; test: Reversal of icilin-induced "wet-dog" shaking behavior in rats; assay type: in vivo; details: 10 mg/kg p.o., 1 h post-icilin, relative to WDS count prior to test compound dose
Procedure: Male Sprague Dawley rats (220-450 g, Charles River Labs, n=6-9/treatment) may be used to evaluate the ability of selected compounds of the formula (I) to block icilin-induced “wet-dog” shakes (WDS). Compounds of the formula (I) may be administered in an appropriate vehicle, such as hydroxypropyl-β-cyclodextrin (HPβCD), methocellulose, 10% Solutol, or H2O, or the like, by the appropriate route, i.p. or p.o., 30-120 minutes before icilin. Icilin may be administered in PEG-400 or 10% solutol/H2O, at 1.0 or 3.0 mg/kg, i.p. and spontaneous “wet-dog” shakes may be counted 10-20 minutes post-icilin.
Compounds of the present invention capable of inhibiting the onset of icilin-induced “wet-dog” shaking behavior may also be assessed for their ability to reverse an existing icilin-induced “wet-dog” shaking behavior. In this paradigm, icilin-induced shaking is counted for 10 minutes followed by administration of a compound of the present invention in a suitable vehicle such as hydroxypropyl methylcellulose, hydroxypropyl-β-cyclodextrin or 10% Solutol in water. The diminution of shaking behavior is represented as a percent inhibition relative to icilin-induced shakes in the absence of test compound administration, as described by the following formula: % Inhibition=[1−(WDS count following test compound dose/WDS count prior to test compound dose)]×100.

| IC50 (canine TRPM8) [µM] | % Inh @ 0.2 (μM) (canine TRPM8) [%] | inhibition at 0.2 µM (canine TRPM8) [%] | Compound | % Inhibition [1] [%] |
| --- | --- | --- | --- | --- |
| 0.071 | – | – | 4-(3-Methyl-butyl)-piperazine-1-sulfonic acid (3-methyl-benzo[b]thiophen-2-yl)-(4-trifluoromethoxy-benzyl)-sulfamoyl]-amide [Compound 5] | – |
| 0.06 | – | – | 4-Isopropyl-piperazine-1-sulfonic acid (3-methyl-benzo[b]thiophen-2-yl)-(4-trifluoromethoxy-benzyl)-sulfamoyl]-amide [Compound 4] | – |
| 0.046 | 90 | – | 4-Methyl-piperazine-1-sulfonic acid (3-methyl-benzo[b]thiophen-2-yl)-(4-trifluoromethoxy-benzyl)-sulfamoyl]-amide [Compound 6] | – |
| 0.0036 | – | 99 | Cc1c(N(Cc2ccc(OC(F)(F)F)cc2)S(=O)(=O)N2CCCCC2)sc2ccccc12 [Compound 1, Piperidine-1-sulfonic acid (3-methyl-benzo[b]thiophen-2-yl)-(4-trifluoromethoxy-benzyl)-amide] | – |
| 0.0057 | 100 | – | Cc1c(N(Cc2ccc(OC(F)(F)F)cc2)S(=O)(=O)N2CCOCC2)sc2ccccc12 [Compound 2, Morpholine-1-sulfonic acid (3-methyl-benzo[b]thiophen-2-yl)-(4-trifluoromethoxy-benzyl)-amide] | – |
| 0.013 | 100 | – | Cc1c(N(Cc2ccc(OC(F)(F)F)cc2)S(=O)(=O)N2CCN(CC(F)(F)F)CC2)sc2ccccc12 [Compound 7] | – |
| – | 9 | – | Cc1c(N(Cc2ccc(OC(F)(F)F)cc2)S(=O)(=O)NS(=O)(=O)N2CCN(N3CCCC3)CC2)sc2ccccc12 [Compound 9] | – |
| 0.0046 | – | 101 | Cc1c(N(Cc2ccc(OC(F)(F)F)cc2)S(=O)(=O)N2CCC(C(=O)O)CC2)sc2ccccc12 [Compound 10, 1-[(3-Methyl-benzo[b]thiophen-2-yl)-(4-trifluoromethoxy-benzyl)-sulfamoyl]-piperidine-4-carboxylic acid] | 57 |
| 0.061 | – | 70 | Cc1c(N(Cc2ccc(OC(F)(F)F)cc2)S(=O)(=O)N2CCC(C(=O)NCCN(C)C)CC2)sc2ccccc12 [Compound 12, 1-[(3-Methyl-benzo[b]thiophen-2-yl)-(4-trifluoromethoxy-benzyl)-sulfamoyl]-piperidine-4-carboxylic acid (2-dimethylamino-ethyl)-amide] | – |
| 0.062 | 72 | – | Cc1c(N(Cc2ccc(F)c(C(F)(F)F)c2)S(=O)(=O)NCCCC(=O)O)sc2ccccc12 [Compound 13, N-(4-Fluoro-3-trifluoromethyl-benzyl)-N-(3-methyl-benzo[b]-thiophen-2-yl)-N′-(butyric acid)-sulfonamide] | – |
| – | 33 | – | O=C(O)CNS(=O)(=O)N(Cc1ccc(F)c(C(F)(F)F)c1)c1sc2ccccc2c1Br [Compound 14, N-(3-Bromo-benzo[b]thiophen-2-yl)-N-(4-fluoro-3-trifluorobenzyl)-(N-acetic acid)-sulfonamide] | – |
| 0.018 | 101 | – | O=C(O)CCCNS(=O)(=O)N(Cc1ccc(F)c(C(F)(F)F)c1)c1sc2ccccc2c1Br [Compound 15, N-(3-Bromo-benzo[b]thiophen-2-yl)-N-(4-fluoro-3-trifluorobenzyl)-(N-butyric acid)-sulfonamide] | – |
| 0.0085 | 101 | – | O=C(O)CCCCNS(=O)(=O)N(Cc1ccc(F)c(C(F)(F)F)c1)c1sc2ccccc2c1Br [Compound 16] | – |

| Compound | IC50 (canine TRPM8) [µM] | % Inh @ 0.2 (μM) (canine TRPM8) [%] | inhibition at 0.2 µM (canine TRPM8) [%] | % Inhibition [1] [%] |
| --- | --- | --- | --- | --- |
| Cc1c(N(Cc2ccc(OC(F)(F)F)cc2)S(=O)(=O)NS(=O)(=O)N2CCNCC2)sc2ccccc12 [Compound 3] | – | 19 | – | – |
| Cc1c(N(Cc2ccc(OC(F)(F)F)cc2)S(=O)(=O)NS(=O)(=O)N2CCC(N(C)C)CC2)sc2ccccc12 [Compound 8] | – | 36 | – | – |
| Cc1c(N(Cc2ccc(OC(F)(F)F)cc2)S(=O)(=O)N2CCC(C(=O)N3CCN(C)CC3)CC2)sc2ccccc12 [Compound 11] | – | 30 | – | – |
